Measurements: patent US5965539A, “Inhibitors of prenyl transferases” (Univeristy of Pittsburgh, priority 1996, dated 1999)
Entries after “also recorded” stand apart in the source; their conditions may differ. Where two headings read alike, the source gives them in different places.

How the values were obtained:
rat brain FTase = target: T1, rat brain FTase (Rattus norvegicus, UniProt Q02293); experiment: Inhibition of rat brain FTase purified to homogeneity; format: biochemical
T1 construct: 50 nM towards rat brain FTase purified to homogeneity; from tissue; host or cells: rat brain

GGTase I = target: T2, GGTase I (Homo sapiens, UniProt P53609); experiment: GGTase I activity assay: transfer of [3H]geranylgeranyl to recombinant H-Ras-CVLL, Daudi 60,000xg supernatant; format: biochemical
T2 construct: FTase and GGTase I activities from 60,000×g supernatants of human Burkitt lymphoma (Daudi) cells; endogenous in cells; host or cells: human Burkitt lymphoma (Daudi) cells, 60,000xg supernatant (partially purified)

Rap1A processing = Rap1A processing assay in EJ3 / Ras transformed 3T3 cells (FIG. 16B); format: cell-based
Method: For Rap1A processing assays, 50 μg of cell lysates were electrophoresed as described above for Ras processing and transferred to nitrocellulose. These membranes were then blocked with 5% milk in Tris-buffered saline, pH 8.0, containing 0.5% Tween-20 and probed with anti-Rap1A (1 μg/ml in 5% milk/TBS-T; Santa Cruz Biotechnology, Santa Cruz, Calif.). Antibody reactions were visualized using peroxidase-conjugated goat anti-rabbit IgG (Oncogene) and ECL chemiluminescence as described above.

FTase [1] = target: T3, FTase (Homo sapiens, UniProt P49356); experiment: FTase activity assay: transfer of [3H]farnesyl from FPP to recombinant H-Ras-CVLS, Daudi 60,000xg supernatant; format: biochemical
T3 construct: FTase and GGTase I activities from 60,000×g supernatants of human Burkitt lymphoma (Daudi) cells; endogenous in cells; host or cells: human Burkitt lymphoma (Daudi) cells, 60,000xg supernatant (partially purified)
Method: FTase and GGTase I activities from 60,000×g supernatants of human Burkitt lymphoma (Daudi) cells (ATCC, Rockville, Md., USA) were assayed as described previously for FTase (41). Briefly, 100 μg of the supernatant was incubated in 50 mM Tris, pH 7.5, 50 μM ZnCl2, 20 mM KCl and 1 mM dithiothreitol (DTT).
Human Burkitt lymphoma (Daudi) cells (ATCC, Rockville, Md.) were grown in suspension in RPMI 1640 medium containing 10% fetal bovine serum (FBS) and 1% Pen-Strep in a humidified 10% CO2 incubator at 37° C. The cells were harvested and sonicated in 50 mM Tris, pH 7.5, 1 mM EDTA, 1 mM EGTA, 25 μg/ml leupeptin, 1 mM phenylmethylsulfonyl fluoride. Homogenates were then spun at 12,000×g and the resulting supernatant further spun at 60,000×g. The supernatant was assayed for both FTase and GGTase I. Briefly, 100 μg of the supernatants was incubated in 50 mM Tris, pH 7.5, 50 μM ZnCl2, 20 mM KCl, 3 mM MgCl2 and 1 mM DTT. […] FPP (625 nM; 16.3 Ci/mmol). For GGTase assays, the reaction was also incubated for 30 minutes at 37° C. but with recombinant H-Ras-CVLL (5 μM) and [^3 H] GGPP (525 nM; 19.0 Ci/mmol). The reaction was stopped and passed through glass fiber filters to separate free and incorporated label. For inhibition studies, the peptidomimetics were premixed with FTase or GGTase I prior to adding the remainder of the reaction mixture. […] Recombinant H-Ras-CVLL was prepared from bacteria (32).
FTase and GGTase I activities from 60,000×g supernatants of human Burkitt lymphoma (Daudi) cells (ATCC, Rockville, Md.) were assayed exactly as described previously for FTase (41).

FTase [2] = target: T3, FTase; experiment: Peptidomimetics farnesylation assay (silica gel TLC); format: biochemical
Method: The ability of human Burkitt lymphoma (Daudi) FTase to farnesylate peptides and peptidomimetics was determined as described previously (34, 35). Briefly, 25 μl of reaction mixture containing 50 μg of 60,000×g supernatants and 20 μM peptidomimetic in 50 mM Tris, pH 7.5, 50 μM ZnCl2, 20 mM KCl, 3 mM MgCl2, 1 mM DTT and 0.2% octylβ-D-glucoside was incubated for 30 minutes at 37° C., then spotted onto silica gel G TLC sheets (20×20 cm, Brinkmann Instruments), and developed with n-propanol/5 N ammonium hydroxide/water (6:1:1). The dried sheets were sprayed with En^3 Hance (DuPont NEN) and exposed to x-ray film for detection of [^3 H] farnesylated products.

Ras processing = Ras processing assay in EJ3 / Ras transformed 3T3 cells (FIG. 16A); format: cell-based
Method: EJ3 cells were treated with peptidomimetics or vehicle for 20-24 h. Cells were lysed in lysis buffer (10 mM Na2 HPO4, pH 7.25, 150 mM NaCl, 0.1% sodium dodecyl sulfate, 1% Triton X-100, 12 mM sodium deoxycholate, 1 mM NaF, 0.2% NaN3, 2 mM PMSF, 25 μg/ml leupeptin) and the lysates were cleared by spinning at 13,000 rpm for 15 minutes. Ras protein was immunoprecipitated overnight at 4° C. with 50 μg of anti-Ras antibody (Y13-259; hybridoma from ATCC, Rockville, Md.) along with 30 μl Protein A-agarose goat anti-rat IgG complex (oncogene Science, Uniondale, N.Y.). Immunoprecipitates were washed 4 times with lysis buffer and the bound proteins were released by heating for 5 minutes in 40 μl SDS-PAGE sample buffer and subsequently electrophoresed on a 12.5% SDS-PAGE.

FTase [3] = conditions: published; cited from earlier work

T3 sequence (P49356 whole entry): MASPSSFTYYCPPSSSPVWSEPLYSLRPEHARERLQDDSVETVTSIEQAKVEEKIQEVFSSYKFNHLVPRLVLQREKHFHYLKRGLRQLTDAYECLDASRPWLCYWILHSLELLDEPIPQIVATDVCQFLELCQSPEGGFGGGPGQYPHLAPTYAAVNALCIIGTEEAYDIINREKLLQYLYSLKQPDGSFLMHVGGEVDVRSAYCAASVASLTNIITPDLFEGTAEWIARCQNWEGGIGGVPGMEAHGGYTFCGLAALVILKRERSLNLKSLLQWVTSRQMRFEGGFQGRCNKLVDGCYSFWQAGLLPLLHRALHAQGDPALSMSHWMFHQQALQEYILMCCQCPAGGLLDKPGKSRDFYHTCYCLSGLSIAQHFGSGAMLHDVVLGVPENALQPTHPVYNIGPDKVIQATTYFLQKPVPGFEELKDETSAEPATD
T2 sequence (P53609 whole entry): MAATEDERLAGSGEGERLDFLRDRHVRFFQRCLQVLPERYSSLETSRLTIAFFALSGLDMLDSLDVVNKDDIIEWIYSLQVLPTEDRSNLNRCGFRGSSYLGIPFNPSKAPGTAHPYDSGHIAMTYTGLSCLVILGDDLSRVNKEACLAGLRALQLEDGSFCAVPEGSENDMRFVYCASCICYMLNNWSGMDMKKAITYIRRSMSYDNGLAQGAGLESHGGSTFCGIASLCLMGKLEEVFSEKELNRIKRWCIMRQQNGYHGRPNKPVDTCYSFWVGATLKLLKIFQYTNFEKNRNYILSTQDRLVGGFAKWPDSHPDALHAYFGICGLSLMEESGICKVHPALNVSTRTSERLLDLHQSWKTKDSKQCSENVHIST

Row | IC50 (rat brain FTase) [nM] | IC50 (GGTase I; Table 4, read-out: GGTase-I IC50) [nM] | IC50 (GGTase I; read-out: GGTase I IC50) [nM] | selectivity for FTase over GGTase I (FTase [1]) [fold] | Selectivity (FTase [1]; Table 4, FTase over GGTase I) | IC50 (FTase [1]; Table 4, read-out: FTase IC50) [nM] | Substrate (FTase [2]; Table 4, substrate for farnesylation, TLC) | Molecule | inhibition of Rap1A processing (Rap1A processing) | farnesylation by FTase (FTase [2]; FIG. 15, listed as 4) | lowest concentration that inhibited Ras processing (Ras processing) [µM] | inhibition of Ras processing (Ras processing; 100 μM) | IC50 (FTase [3]) [nM]
1 | 50 | 100000 | 100000 | 877 | 877 | 114 | no | N[C@@H](CS)CNc1ccc(-c2cccc(C(=O)O)c2)cc1 [FTI-265, 4-N-[2(R)-amino-3-mercaptopropyl]amino-3'-carboxybiphenyl] | not able to inhibit Rap1A geranylgeranylation | prevented farnesylation; also recorded: not substrates for farnesylation | 50 | potently inhibit Ras processing | –
2 | – | – | – | – | – | – | – | Cys-Ile-Phe-Met (CIFM; printed: Cys-Ile-Phe-Met) | – | – | – | – | 30
